One assay has as its system STZ-treated C57BL mice. Kind of assay: Blood glucose in STZ-treated (β-cell-depleted) C57BL mice. To be noted: cytopiloyne oral 0.1, 0.5 and 2.5 mgkg^−1; insulin i.p. 2.5 IUkg^−1. The assay is classed as in vivo, mouse. Here is the method: FIGS. 3A-C show cytopiloyne-mediated insulin release depends on pancreatic islet cells. (A) Rat pancreatic islet cells were incubated with glucose-free KRB buffer containing vehicle or cytopiloyne at 1.5, 3, 7, 14, 28 and 42 μM (FIG. 3A-i). Similarly, rat pancreatic islet cells were incubated with KRB buffer containing vehicle, glimepiride (GLM, 10 μM) or cytopiloyne at 1.5, 3, 7, 14, 28 and 42 μM in the presence of 3.3 mM glucose (LG, FIG. 3A-ii) or 16.7 mM glucose (HG, FIG. 3A-iii). The insulin levels were determined using an insulin ELISA kit. The data presented as mean±SEM of 3 independent experiments. (B) Fed C57BL mice, which had already received an injection of STZ, were administered with an oral dose of vehicle, cytopiloyne (CP, 0.1, 0.5 and 2.5 mgkg^−1), and an intraperitoneal injection of insulin (Ins, 2.5 IUkg^−1). Blood sugar levels in the STZ-treated mice were determined using a glucometer. […] Blood sugar levels in the STZ-treated mice were determined using a glucometer. All the results from 3 independent experiments are expressed as mean±SEM, and P<0.05 was considered to be statistically significant (*). […]
To deplete pancreatic β-cells in mice, 6-week-old C57BL females (NLAC, Taipei, Taiwan) were intraperitoneally injected with STZ at 200 mgkg^−1. […] Blood glucose levels were monitored for 4 h. […] Blood glucose levels in the mice were monitored from 0 to 4 h after insulin injection.

The test system of the next assay is RIN-m5F cells. The experiment in a line: Intracellular calcium (Fura 2-AM) in RIN-m5F cells. The assay is classed as cell-based, rat. Conditions: cytopiloyne 7, 14 and 28 μM, glucose 16.7 mM. The procedure: FIGS. 5A-D show the effects of cytopiloyne on calcium mobilization, DAG generation and PKCa activation. (A) After Fura 2-AM loading, RIN-m5F cells were stimulated with 16.7 mM glucose (HG) and cytopiloyne at 7, 14 and 28 μM. Level of intracellular calcium, as shown by the 340/380 nm ratio, was detected using a fluorescence spectrophotometer. (B) RIN-m5F cells were pulsed with ^3H-myristic acid (5 Cim1^−1) for 16 hours. After washing, the cells were stimulated with glucose, cytopiloyne, PMA and glimepiride. Total lipids were separated on a silica thin layer plate. DAG and cholesterol were visualized with iodine vapor and identified by their standards. (C) RIN-m5F cells were incubated with vehicle (Mock), cytopiloyne (CP, 3, 7 and 14 μM), PMA (1 μM) and 16.7 mM (HG). Membrane or cytosolic proteins were subjected to Western blot with anti-PKCα and anti-Actin antibodies. (D) RIN-m5F cells were incubated with vehicle (Mock), cytopiloyne (CP 7 μM) and PMA (1 μM). […]
RIN-m5F cells were pre-loaded with Fura 2-AM (5 μM) in modified Krebs-Henseleit buffer for 30 min at 25° C. […] Intracellular calcium of the cells was measured using a fluorescence spectrophotometer (CAF 110, Jasco, Tokyo, Japan) at excitation wavelengths of 340 and 380 nm and an emission wavelength of 500 nm. The ratio of fluorescence intensity at 340 nm to that at 380 nm represents the level of intracellular calcium.
Background: Calcium assays in cells follow changes in intracellular calcium, usually with a dye or a luminescent sensor.

Another assay deals with db/db mice. The experiment in a line: Prophylaxis of diabetes in diabetes-free db/db mice. It is filed as in vivo, mouse. Conditions: 0.5 mgkg^−1 daily for 4 weeks, diabetes-free db/db mice aged 4 weeks. Here is the method:
FIGS. 2A-B show the prophylactic effect of cytopiloyne in db/db mice. […] Postprandial blood glucose levels in these mice were measured. (B) Blood insulin levels from the mice of […] were measured. Results from 3 independent experiments are expressed as mean±SEM, and P<0.05 was considered to be statistically significant (*).
After 0.5 h, the levels of postprandial blood sugar and insulin from the mice were monitored for additional 4 h. For continued administration, diabetic db/db males were grouped and tube-fed with vehicle, cytopiloyne (0.5 or 2.5 mgkg^−1 day^−1) or glimepiride (2.5 mg kg^−1 day^−1) for the indicated time, while levels of blood sugar, insulin, and glycosylated HbA1c, and glucose tolerance in these mice were determined. To evaluate the prophylaxis of diabetes, diabetes-free db/db mice at 4 weeks of age were tube-fed with vehicle or cytopiloyne (CP, 0.5 mgkg^−1), once a day, for 4 weeks. Unless indicated otherwise, the mice were fasted for 16 h, then Postprandial blood glucose and insulin in these mice were measured.

The subject of assay [1] is rat pancreatic islet cells. The experiment in a line: Insulin release from rat pancreatic islets (ELISA). It is filed as cell-based. Here is the method:
FIGS. 3A-C show cytopiloyne-mediated insulin release depends on pancreatic islet cells. (A) Rat pancreatic islet cells were incubated with glucose-free KRB buffer containing vehicle or cytopiloyne at 1.5, 3, 7, 14, 28 and 42 μM (FIG. 3A-i). Similarly, rat pancreatic islet cells were incubated with KRB buffer containing vehicle, glimepiride (GLM, 10 μM) or cytopiloyne at 1.5, 3, 7, 14, 28 and 42 μM in the presence of 3.3 mM glucose (LG, FIG. 3A-ii) or 16.7 mM glucose (HG, FIG. 3A-iii). The insulin levels were determined using an insulin ELISA kit. The data presented as mean±SEM of 3 independent experiments. (B) Fed C57BL mice, which had already received an injection of STZ, were administered with an oral dose of vehicle, cytopiloyne (CP, 0.1, 0.5 and 2.5 mgkg^−1), and an intraperitoneal injection of insulin (Ins, 2.5 IUkg^−1). Blood sugar levels in the STZ-treated mice were determined using a glucometer. (C) C57BL mice, which had already received STZ, were orally administered with a single dose of vehicle, cytopiloyne (CP, 0.5 and 2.5 mgkg^−1), glimepiride (GLM, 2.5 mgkg^−1), or metformin (60 mgkg^−1), followed by an intraperitoneal injection with insulin (Ins). Blood sugar levels in the STZ-treated mice were determined using a glucometer. All the results from 3 independent experiments are expressed as mean±SEM, and P<0.05 was considered to be statistically significant (*). The number of mice (n) is indicated in parentheses.
Glucose levels in mouse blood samples were measured using an Elite® glucometer (Bayer, Pittsburgh, Pa., USA). Insulin levels in blood samples or islet cell supernatants were determined by ELISA assays (Mercodia, Uppsala, Sweden). The levels of glycosylated HbA1c in mouse blood samples were measured using DCA 2000 analyzer (Bayer, Pittsburgh, Pa., USA).
Pancreatic islets (10 isletsml^−1) from fasted male Wistar rats were incubated with KRB buffer containing vehicle (1 μl DMSO per ml KRB buffer), glimepiride or cytopiloyne in the absence or presence of glucose for 30 min. The KRB buffer was then collected for ELISA assays.

The structures appear in SMILES notation.

As for `CC#CC#CC#CC#CCCC(CO)O[C@@H]1O[C@H](CO)[C@@H](O)[C@H](O)[C@H]1O` (stereo partly drawn) [cytopiloyne, 2-β-D-glucopyranosyloxy-1-hydroxytrideca-5,7,9,11-tetrayne], the “reduction of hyperglycemia / blood glucose in β-cell-depleted mice” value in the assay with STZ-treated C57BL mice is on record as “lost its ability in regulating both responses”. Further, the “intracellular calcium (340/380 nm ratio)” value with RIN-m5F cells is reported as “increased intracellular calcium in a dose-dependent manner”. In the assay with db/db mice, the “blood sugar control in prophylactic treatment” value is recorded as “control blood sugar in these mice much better than the control” and the “prevention of T2D” value was “failed to prevent the disease”. The “insulin secretion from rat islets” value in assay [1] (16.7 mM glucose KRB, also glucose-free and low glucose media) is on record as “enhanced insulin secretion in high glucose medium”. In addition, in assay [1] (high dose, glucose-free KRB buffer), the “insulin secretion in the absence of glucose” value is given as “can still stimulate insulin secretion to some extent even in the absence of glucose”. Moreover, the “insulin release in pancreatic islets, glucose dependence” value in assay [1] (low dose (e.g., 3 μM), 0, 3.3 and 16.7 mM glucose) was “simulates insulin release in pancreatic islets in a glucose-dependent manner”.

These data come from patent US8575116B1, “Polyacetylenic compounds for protecting against pancreatic islet atrophy” (Academia Sinica, priority 2010, dated 2013).
